Laboratory results from patent US20120142646A1, “Novel Compounds 621” (priority 2006, published 2012).

Tests used:
[1] = target: T1, recombinant human adrenergic beta 1 receptors (Homo sapiens, UniProt P08588); test: Adrenergic β1 [125I]-Iodocyanopindolol binding; conditions: inhibition of [125I]-Iodocyanopindolol binding (0.036 nM); read-out: β1 bind p IC50 (converted)
T1 construct: purchased Euroscreen
Protocol: (§1) Membranes containing recombinant human adrenergic beta 1 receptors were obtained from Euroscreen. These were diluted in Assay Buffer (50 mM HEPES, 1 mM EDTA, 120 mM NaCl, 0.1% gelatin, pH 7.4) to provide a final concentration of membranes that gave a clear window between maximum and minimum specific binding.
Assays were performed in U-bottomed 96-well polypropylene plates. 10 μL [^125I]-Iodocyanopindolol (0.036 nM final concentration) and 10 μL of test compound (10× final concentration) were added to each test well. For each assay plate 8 replicates were obtained for [^125I]-Iodocyanopindolol binding in the presence of 10 μL vehicle (10% (v/v) DMSO in Assay Buffer; defining maximum binding) or 10 μL Propranolol (10 μM final is concentration; defining non-specific binding (NSB)). Membranes were then added to achieve a final volume of 100 μL. […] Five washes with 250 μL wash buffer (50 mM HEPES, 1 mM EDTA, 120 mM NaCl, pH 7.4) were performed at 4° C. to remove unbound radioactivity. […] The plates were sealed (TopSeal A) and filter-bound radioactivity was measured with a scintillation counter (TopCount, Packard BioScience) using a 3-minute counting protocol.
(§2) Total specific binding (B0) was determined by subtracting the mean NSB from the mean maximum binding. […]

[2] = target: T2, recombinant human Dopamine Subtype D2s receptors (Homo sapiens, UniProt P14416); test: Dopamine D2 [3H]-spiperone binding; conditions: inhibition of [3H]-spiperone binding (0.16 nM); read-out: D2 bind pIC50 (converted)
T2 construct: purchased Perkin Elmer
Protocol: as §1, with “Dopamine Subtype D2s” for “adrenergic beta 1”, “Perkin Elmer.” for “Euroscreen.”
Assays were performed in U-bottomed 96-well polypropylene plates. 30 μL [^3H]-spiperone (0.16 nM final concentration) and 30 μL of test compound (10× final concentration) were added to each test well. For each assay plate 8 replicates were obtained for [^3H]-spiperone binding in the presence of 30 μL vehicle (10% (v/v) DMSO in Assay Buffer; defining maximum binding) or 30 μL Haloperidol (10 μM final concentration; defining non-specific binding (NSB)). Membranes were then added to achieve a final volume of 300 μL. […] Five washes with 250 μL wash buffer (50 mM HEPES, 1 mM EDTA, 120 mM NaCl, pH 7.4) were performed at 4° C. to remove unbound radioactivity. […] The plates were sealed (TopSeal A) and filter-bound radioactivity was measured with a scintillation counter (TopCount, Packard BioScience) using a 3-minute counting protocol.
as §2

[3] = target: T3, recombinant human α1D receptor (Homo sapiens, UniProt P25100); test: Adrenergic α1D [3H]-prazosin binding, HEK293 membranes; conditions: inhibition of [3H]-prazosin binding (0.3 nM), read-out: α1 bind pIC50 (converted)
T3 construct: expressed in transfected cells; host or cells: HEK293
T3 sequence (P25100 1-572): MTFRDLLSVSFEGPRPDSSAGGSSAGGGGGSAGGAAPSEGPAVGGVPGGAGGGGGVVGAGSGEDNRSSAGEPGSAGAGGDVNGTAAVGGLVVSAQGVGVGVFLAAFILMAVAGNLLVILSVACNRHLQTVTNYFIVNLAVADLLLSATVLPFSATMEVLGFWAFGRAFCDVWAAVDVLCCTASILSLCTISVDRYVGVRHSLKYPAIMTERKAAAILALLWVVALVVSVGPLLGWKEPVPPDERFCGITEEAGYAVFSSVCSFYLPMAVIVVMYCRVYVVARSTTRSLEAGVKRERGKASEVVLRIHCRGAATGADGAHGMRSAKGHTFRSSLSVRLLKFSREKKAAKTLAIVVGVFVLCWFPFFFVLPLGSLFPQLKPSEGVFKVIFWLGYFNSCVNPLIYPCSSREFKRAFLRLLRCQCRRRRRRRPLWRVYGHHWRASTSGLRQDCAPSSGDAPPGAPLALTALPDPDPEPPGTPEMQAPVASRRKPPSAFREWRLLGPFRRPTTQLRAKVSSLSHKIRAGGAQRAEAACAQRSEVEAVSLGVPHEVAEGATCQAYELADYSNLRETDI
Protocol: Membranes were prepared from human embryonic kidney 293 (HEK293) cells expressing recombinant human α1D receptor. These were diluted in Assay Buffer (50 mM HEPES, 1 mM EDTA, pH 7.4) to provide a final concentration of membranes that gave a clear window between maximum and minimum specific binding.
Assays were performed in U-bottomed 96-well polypropylene plates. 10 μL [^3H]-prazosin (0.3 nM final concentration) and 10 μL of test compound (10× final concentration) were added to each test well. For each assay plate 8 replicates were obtained for [^3H]-prazosin binding in the presence of 10 μL vehicle (10% (v/v) DMSO in Assay Buffer; defining maximum binding) or 10 μL BMY7378 (10 μM final concentration; defining non-specific binding (NSB)). Membranes were then added to achieve a final volume of 100 μL. The plates were incubated for 2 hours at room temperature and then filtered onto PEI coated GF/B filter plates, pre-soaked for 1 hour in Assay Buffer, using a 96-well plate Tomtec cell harvester. Five washes with 250 μL wash buffer (50 mM HEPES, 1 mM EDTA, pH 7.4) were performed at 4° C. to remove unbound radioactivity. […] The plates were sealed (TopSeal A) and filter-bound radioactivity was measured with a scintillation counter (TopCount, Packard BioScience) using a 3-minute counting protocol.
as §2

T1 sequence (P08588 whole entry): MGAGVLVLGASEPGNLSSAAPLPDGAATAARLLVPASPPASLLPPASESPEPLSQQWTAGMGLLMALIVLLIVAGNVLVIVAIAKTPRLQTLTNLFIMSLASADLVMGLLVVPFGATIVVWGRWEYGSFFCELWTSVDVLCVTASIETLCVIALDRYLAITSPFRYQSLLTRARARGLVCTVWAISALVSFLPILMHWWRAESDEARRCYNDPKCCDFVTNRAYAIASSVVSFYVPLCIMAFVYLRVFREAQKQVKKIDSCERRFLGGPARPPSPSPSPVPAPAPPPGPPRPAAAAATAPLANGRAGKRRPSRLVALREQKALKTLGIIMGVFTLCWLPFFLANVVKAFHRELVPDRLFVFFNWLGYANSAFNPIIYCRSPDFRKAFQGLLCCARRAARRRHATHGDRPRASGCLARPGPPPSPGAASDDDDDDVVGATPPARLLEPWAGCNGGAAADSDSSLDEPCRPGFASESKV
T2 sequence (P14416 1-414 isoform P14416-2): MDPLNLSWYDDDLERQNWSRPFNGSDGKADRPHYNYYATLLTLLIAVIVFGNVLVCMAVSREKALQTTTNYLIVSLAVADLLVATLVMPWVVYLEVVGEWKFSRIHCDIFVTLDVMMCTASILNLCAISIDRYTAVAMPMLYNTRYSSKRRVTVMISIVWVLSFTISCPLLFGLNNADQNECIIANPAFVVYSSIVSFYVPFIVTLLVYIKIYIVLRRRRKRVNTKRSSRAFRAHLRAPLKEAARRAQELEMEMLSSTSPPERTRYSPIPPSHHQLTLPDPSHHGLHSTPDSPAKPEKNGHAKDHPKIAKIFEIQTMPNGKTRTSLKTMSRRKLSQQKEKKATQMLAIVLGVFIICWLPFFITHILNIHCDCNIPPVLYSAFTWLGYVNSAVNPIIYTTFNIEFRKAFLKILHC

What does the source list for `CCCCC[C@@H](C)N(CCNCCc1ccc(O)c2c1OCC(=O)N2)C(=O)CCNCCc1ccccc1` [Example 60, (R)—N-(Heptan-2-yl)-N-(2-(2-(5-hydroxy-3-oxo-3,4-dihydro-2H-benzo[b][1,4]oxazin-8-yl)ethylamino)ethyl)-3-(phenethylamino)propanamide bis(trifluoroacetate)]?
IC50 [1]: 2510 nM; IC50 [2]: 50.1 nM; IC50 [3]: 100 nM
